Data reported in patent publication US20170349949A1, “METHODS OF SELECTING SUBJECTS FOR TREATMENT WITH METABOLIC MODULATORS” (Partikula LLC, priority 2016, published 2017).

Columns and labels:
pyruvate dehydrogenase = conditions: highly purified pyruvate dehydrogenase, cited from earlier work
HCT116 tumors = assay: KULA2 in mice harboring HCT116 tumors (MPC null); assay type: in vivo; conditions: comparator results named beside KULA2 in HCT116; dose and source not given
Description: CT26 is the MPC+ group. MPC levels were verified via western blotting or otherwise known (see, e.g., Schell, et al., Molecular Cell, 56:400-413 (2014)).
In both models HCT116 and CT26 the mice (between 8-10 per arm) were dosed with KULA2 via i.p. injection and vehicle, HCT116 tumors at a dose of 20 mg/kg, and CT26 tumors at a dose of 18 mg/kg. Dosing schedule in both cases was 5 days on, 2 days off for the duration of the study.
Experiments were designed to determine if MPC expression correlates with the efficacy of PDK inhibitor. A PDK inhibitor, KULA2, was administered to mice harboring HCT116 tumors (at a dose of 20 mg/kg) or CT26 tumors (at a dose of 18 mg/kg).

A549 cells = assay: Extracellular lactate after PDK inhibitor, with or without UK5099 pre-treatment; assay type: cell-based; conditions: 16 hrs UK5099 pre-treatment, then DCA 50 mM or KULA2 500 μM for 6 hrs
Description: A549 cells were pre-treated for 16 hrs with the MPC inhibitor UK5099 and then subsequently treated with the test articles for 6 hrs; extracellular lactate was then measured. Dichloroacetate (DCA) and KULA2, a dichloroacetate (DCA) analogue targeted to the mitochondria with a lipophilic triphenylphosphonium (TPP) cation moiety, were used ((Pathak R K et al., ACS Chem. Biol., 9 (5) 1178-1187 (2014), (Pathak R K et al., ACS Chem. Biol., 9 (5) 1178-1187 (2014), and WO/2015/002996). DCA is dosed at 50 mM and KULA2 is dosed at 500 μM.

| Compound | tumor inhibition (comparators) (HCT116 tumors) [%] | other results |
| --- | --- | --- |
| Cc1ncc(C[n+]2csc(CCO)c2C)c(=O)[nH]1 [oxythiamine, Oxythiamine] |  | Ki (pyruvate dehydrogenase; oxythiamine diphosphate ester, read-out: KI against the normal cofactor TPP): 70 nM |
| VEGF-TRAP: comparator named for tumor inhibition | 22 |  |
| N.N.[Cl][Pt][Cl] [cisplatin] | 22 |  |
| CNC(=O)c1cc(Oc2ccc(NC(=O)Nc3ccc(Cl)c(C(F)(F)F)c3)cc2)ccn1 [sorafenib] | 17 |  |
| Cc1ncc(C[n+]2csc(CCO[P@](=O)(O)OP(=O)(O)O)c2C)c(N)n1 [TPP, thiamine pyrophosphate] |  | Km (pyruvate dehydrogenase; read-out: Km of cofactor): 0.11 µM |
| N#C/C(=C\c1cn(-c2ccccc2)c2ccccc12)C(=O)O [UK5099] |  | effect of MPC inhibition on lactate reduction by PDK inhibitors (A549 cells): lowers the lactate reduction normally seen with PDK inhibitors |
